Results published in US20260000496A1, “MATERIALS AND METHODS FOR DRUG-INDUCED GINGIVAL OVERGROWTH” (Optimed Technology, Inc., priority 2019, published 2026).

Test system: NF-κB (p-P65)
Test: Western blot of phospho-p65 (NF-κB) in oral keratinocytes
Type: cell-based, human
Description: Cell Culture. Normal human oral keratinocytes (NOKSI) and fibroblast (HOF) cells were maintained in Dulbecco […] Eagle's medium (Sigma-Aldrich, St. Louis, MO, USA) supplemented with 10% fetal bovine serum (Atlas Bio-logicals, Fort Collins, CO, USA) and 100 units/mL penicillin and 100 μg/mL streptomycin (LifeTechnologies, Carlsbad, CA, USA). Cells were grown in incubator at 37° C. in a humidified chamber with 5% CO2.
Drugs treatment in cell culture. The cells were treated alone or with different combination of lipopolysaccharide, cyclosporine, phenytoin, and folic acid. All of them were purchased from Sigma-Aldrich (St. Louis, MO, USA). Each of them were used from 0 μg/ml to 40 μg/ml and the optimum concentration were found 10 μg/ml.
Western blot analysis. Cells were seeded in 60 mm plates with a density of 5×10^5 cells per plate and washed briefly with Dulbecco's phosphate-buffered saline (Gibco, Waltham, MA, USA). Whole cell lysates were prepared using RIPA lysis buffer containing protease inhibitor cocktail (Sigma-Aldrich). Total protein concentration was determined using the BCA reagent (Pierce, Waltham, MA, USA). 20 μg of total protein were resolved on sodium dodecyl sulfate-polyacrylamide gel electrophoresis and transferred to polyvinylidenedifluoride membrane and immunoblotted. The blots were incubated for 1 h in 1% bovine serum albumin (BSA) (Sigma-Aldrich) to block the non-specific bindings followed by over-night incubation in primary antibodies (MyD88 and pP65 from Cell Signaling Technology, and human LITAF ThermoFisher Sigma) at 4° C. on shaker. Next day, blots were washed for three times (10 min each) in Tris-buffered saline containing 1% Tween20 (TBST) followed by incubation with secondary antibody (Goat anti-rabbit IgG HRP) with 1:10,000 dilution for 1 h. Following washes, bands were visualized using gel documentation Imaging Systems (BioRad). The band intensities were quantified using software ImageJ (NIH, USA) and relative protein levels were normalized by β-actin (Cell Signaling). […]

Compound: Nc1nc2ncc(CNc3ccc(C(=O)N[C@@H](CCC(=O)O)C(=O)O)cc3)nc2c(=O)[nH]1 [folic acid]
- p-P65 protein level (LPS, CSA, FA each 10 μg/ml, 24 hours): inhibits CSA-induced expression
- amount of phospho-p65 (p-P65) protein (LPS, Phe, FA each 10 μg/ml, 24 hours): reduces phosphorylation of NF-κB (p-P65)
- NF-κB by western blot (normal oral keratinocyte cells, FIG. 35): downregulation
